Columns and labels:
Assay type in all cases: in vivo, human
[1] = tested on: healthy volunteers, and patients suffering from inflammatory diseases; test: Lipid profile after oral administration of Compound 1 in humans (summary over the studies)
Procedure: When Compound 1 was administered orally in humans, an unexpected change in the lipid profile was observed.
In contrast, whereas Compound 1 raised the low [total cholesterol] levels, an unexpected disproportionate rise in blood of [HDL] vs [LDL] was observed. In particular, [HDL] levels of 5-23% compared to initial levels were seen. Moreover, this rise in [HDL] was substantially higher than the corresponding increases in [LDL] levels. In particular between 1.1 and 4 fold higher increases in [HDL] vs. [LDL] were seen.
Typically, in a recent treatment study with Tofacitinib, a JAK inhibitor for 6 weeks at a dose of 10 mg bid in RA patient, the atherogenic index was unchanged before and after treatment at about 3.5 (Charles-Schoeman et al., 2015) thus leaving the patient at an increased cardiovascular risk before and after treatment.
Furthermore, this effect was sustained over at least 12 weeks, and at least 24 weeks and were observed over a dose range of 50-200 mg administered either twice daily (b.i.d) or once a day (q.d.).
Additionally, this effect was seen both in healthy volunteers, and patients suffering from inflammatory diseases (for example RA and Crohn's disease).

RA patients [2] = test: Plasma total cholesterol level (Selectra autoanalyzer), Study 4; details: for Total cholesterol level, 4 weeks CFB: 4 weeks change from baseline
Procedure: (§1) Randomized double-blind, placebo-controlled add on study in subjects with active RA who have an inadequate response to MTX monotherapy, in combination with methotrexate, administered for 4 weeks in the treatment of subjects with active rheumatoid arthritis who have an inadequate response to methotrexate alone.
(§2) Compound 1 (dosed as a [Compound 1:HCl:3H2O]) capsules administered orally in 30 mg, 75 mg, 150 mg, or 300 mg doses per day for 4 weeks.
Triglycerides, [HDL] cholesterol, and plasma cholesterol were measured on the Selectra autoanalyzer (Sopachem BV, 44-RI Straat 33, 4051 AP Ochten, The Netherlands). All assays were commercially available from DiaSys Diagnostic Systems GmbH, Alte Strasse 9, 65558 Holzheim, Germany. […]

RA patients [3] = test: Plasma Lecithin-Cholesterol Acyltransferase (LCAT) activity, Study 4; details: for LCAT level, 4 weeks CFB: 4 weeks change from baseline
Procedure: as §1, §2
LCAT activity was determined using a commercial available assay from Roar Biomedical. In short; incubation media contained 0.5 μL substrate reagent, 4 μL plasma in a final volume of 100 μL assay buffer. Incubations were performed for 1 h at 37° C. in a microtiter plate. Hereafter 200 μL READ reagent was added to the wells and after mixing, 200 μL was transferred to a black fluorescence compatible microplate. The plate was read at 340 nm excitation, 390 nm and 450 nm emission. LCAT activity was expressed as a ratio of the emission at 390 nm and 450 nm. These two wavelengths represent the LCAT substrate hydrolysed and not hydrolysed. An increase in the ratio indicates increased LCAT activity. Catalogue number RB-LCAT, Lot number used 13581392.

RA patients [4] = test: Plasma ApoC-II concentration (ELISA), Study 4; details: 4 weeks change from baseline
Procedure: as §1, §2
Plasma ApoC-II and ApoC-III concentrations are determined using commercial available ELISA kits from Abnova (9th Floor, No. 108, Jhouzih St., Neihu District. Taipei City, 114, Taiwan) according to manufacturer's instruction. apoC2: catalogue number KA0464, lot number used: 08871403. apoC3: catalogue number KA0465, lot number used: 02961525.

For `O=C(Nc1nc2cccc(-c3ccc(CN4CCS(=O)(=O)CC4)cc3)n2n1)C1CC1` [Compound 1, cyclopropanecarboxylic acid {5-[4-(1,1-dioxo-thiomorpholin-4-ylmethyl)-phenyl]-[1,2,4]triazolo[1,5-a]pyridin-2yl}-amide], the “rise in [HDL] levels compared to initial levels” value ([1]; administered orally in humans) was 5-23%, the atherogenic index ([1]; doses ranging from 50 mg to 200 mg (once or twice daily) for a period of at least 4 weeks) was “drop of the atherogenic index” and the “Total cholesterol level, 4 weeks CFB” value (RA patients [2]; 30 mg q.d.) was 25.9%. For the same compound, the Total cholesterol level, Baseline (RA patients [2]; 30 mg q.d.) was 4.9 mM, the Total cholesterol level, week 4 (RA patients [2]; 30 mg q.d.) was 5.8 mM and the “Total cholesterol level, 4 weeks CFB” value (RA patients [2]; 75 mg q.d.) was 5.2%. For the same compound, the Total cholesterol level, Baseline (RA patients [2]; 75 mg q.d.) was 4.9 mM, the Total cholesterol level, week 4 (RA patients [2]; 75 mg q.d.) was 5.1 mM and the “Total cholesterol level, 4 weeks CFB” value (RA patients [2]; 150 mg q.d.) was −1.2%. For the same compound, the Total cholesterol level, Baseline (RA patients [2]; 150 mg q.d.) was 5 mM, the Total cholesterol level, week 4 (RA patients [2]; 150 mg q.d.) was 5 mM and the “Total cholesterol level, 4 weeks CFB” value (RA patients [2]; 300 mg q.d.) was 19.4%. The Total cholesterol level, Baseline (RA patients [2]; 300 mg q.d.) was 4.7 mM, the Total cholesterol level, week 4 (RA patients [2]; 300 mg q.d.) was 5.7 mM and the “LCAT level, 4 weeks CFB” value (RA patients [3]; 30 mg q.d.) was 0.4%. For the same compound, the LCAT activity (emission ratio) (RA patients [3]; 30 mg q.d., baseline) was 1.9, the LCAT activity (emission ratio) (RA patients [3]; 30 mg q.d., week 4) was 2 and the “LCAT level, 4 weeks CFB” value (RA patients [3]; 75 mg q.d.) was 4.2%. The LCAT activity (emission ratio) (RA patients [3]; 75 mg q.d., baseline) was 2, the LCAT activity (emission ratio) (RA patients [3]; 75 mg q.d., week 4) was 2.1 and the “LCAT level, 4 weeks CFB” value (RA patients [3]; 150 mg q.d.) was 2.9%. For the same compound, the LCAT activity (emission ratio) (RA patients [3]; 150 mg q.d., baseline) was 1.9, the LCAT activity (emission ratio) (RA patients [3]; 150 mg q.d., week 4) was 1.9 and the “LCAT level, 4 weeks CFB” value (RA patients [3]; 300 mg q.d.) was 4.4%. For the same compound, the LCAT activity (emission ratio) (RA patients [3]; 300 mg q.d., baseline) was 2, the LCAT activity (emission ratio) (RA patients [3]; 300 mg q.d., week 4) was 2.1 and the “ApoC-II level, 4 weeks CFB” value (RA patients [4]; 30 mg q.d.) was 11.2%. The “ApoC-II level, 4 weeks CFB” value (RA patients [4]; 75 mg q.d.) was 23.3%, the “ApoC-II level, 4 weeks CFB” value (RA patients [4]; 150 mg q.d.) was 8.6% and the “ApoC-II level, 4 weeks CFB” value (RA patients [4]; 300 mg q.d.) was 37.0%.

From patent US10376520B2, “Methods for the treatment of cardiovascular disorders” (Galapagos NV, priority 2015, dated 2019)
